Laboratory results: patent US20240199683A1, “ANDROGEN RECEPTOR MODULATORS” (priority 2021, published 2024)

What was measured:
[1] = molecular target: T1, human AR (Homo sapiens, UniProt P10275); test: human AR agonist assay (Indigo Biosciences); format: cell-based
T1 construct: purchased Indigo Biosciences
T1 sequence (P10275 1-920): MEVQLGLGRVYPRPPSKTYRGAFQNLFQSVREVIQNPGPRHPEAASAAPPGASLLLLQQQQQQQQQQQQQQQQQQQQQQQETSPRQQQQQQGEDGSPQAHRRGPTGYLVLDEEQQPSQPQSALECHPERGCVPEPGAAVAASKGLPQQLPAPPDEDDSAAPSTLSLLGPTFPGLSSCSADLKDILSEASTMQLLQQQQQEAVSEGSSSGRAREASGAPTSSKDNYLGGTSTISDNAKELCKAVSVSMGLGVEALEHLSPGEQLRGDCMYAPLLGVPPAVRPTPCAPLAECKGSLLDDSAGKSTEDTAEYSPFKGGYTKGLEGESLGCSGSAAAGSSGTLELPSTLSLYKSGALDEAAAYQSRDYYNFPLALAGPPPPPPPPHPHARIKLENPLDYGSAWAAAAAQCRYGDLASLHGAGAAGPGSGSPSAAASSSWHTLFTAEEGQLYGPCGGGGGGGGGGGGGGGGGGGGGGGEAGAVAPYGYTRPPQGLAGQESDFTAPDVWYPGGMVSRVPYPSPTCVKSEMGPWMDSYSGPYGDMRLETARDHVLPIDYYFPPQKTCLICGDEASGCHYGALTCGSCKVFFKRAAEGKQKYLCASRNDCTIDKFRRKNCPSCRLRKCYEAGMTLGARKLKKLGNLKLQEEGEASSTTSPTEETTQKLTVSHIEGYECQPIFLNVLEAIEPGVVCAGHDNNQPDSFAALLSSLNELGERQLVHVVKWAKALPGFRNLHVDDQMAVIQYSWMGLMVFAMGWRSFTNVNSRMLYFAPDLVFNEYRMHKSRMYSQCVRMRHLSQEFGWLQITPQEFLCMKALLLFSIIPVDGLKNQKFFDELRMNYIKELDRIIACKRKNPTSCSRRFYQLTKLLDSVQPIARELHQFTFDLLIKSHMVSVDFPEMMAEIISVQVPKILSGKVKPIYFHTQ
From the text: (§1) The activity of a compound can be determined using various known methods. For example, AR assays can be used. Such AR assays include binding assays using, for example, cells transfected with the human androgen receptor. Several cell based model systems that allow sensitive detection and monitoring of steroids or other compounds with AR bioactivity are known. Most cell based AR reporter models use transgenic gene constructs that include an androgen response element (ARE) that controls reporter gene (e.g., lucifersrase) expression. For example, a human AR Reporter Assay System is commercially available from Indigo Biosciecnes. The principle application of such an assay product is to quantify functional activities, either agonist or antagonist, that a compound may exert against the human androgen receptor. […] In addition, the anti-proliferative activity of a compound can be determined using various known methods, including in vitro and in vivo antiproliferative assays using cancer cell lines such as a prostate cancer cell line.
(§2) The activity of certain compounds were tested in a human AR agonist assay and a human AR antagonist assay (Indigo Biosciences).

[2] = molecular target: T1, human AR; test: human AR antagonist assay (Indigo Biosciences); format: cell-based
From the text: as §1, §2

[3] = molecular target: T2, androgen receptor (Homo sapiens, UniProt P10275); test: Ki of Table A (method not described; AR binding assays mentioned generally)
T2 sequence (P10275 1-920): T1 sequence (P10275 1-920)
From the text: as §1

[4] = Table A, values match the human AR antagonist assay

## C[C@]12CC[C@@]3(C)C(=C1C[C@H](O)C2)CCC1=CC(=O)CC[C@@H]13 [Compound 103, (9R,10S,13R,16R)-16-hydroxy-9,13-dimethyl-1,2,6,7,9,10,11,12,13,15,16,17-dodecahydro-3H-cyclopenta[a]phenanthren-3-one]
[1]
  EC50: 8950 µM

## C[C@]12CCC3=C(CC[C@@H]4CC(=O)CC[C@]34C)[C@@]13C[C@H]3[C@@H](O)C2 [Compound 203]
[2]; Table 4, antagonist mode
  HillSlope: 1.202
  IC50: 1.18 µM
[2]; [4]
  IC50: 1.18 µM

## C[C@]12CCC(=O)C=C1CCC1=C2CC[C@]2(C)C[C@H](O)[C@@H]3C[C@@]132 [Compound 201]
[2]; Table 4, antagonist mode
  HillSlope: 1.375
[2]; [4]
  IC50: 0.218 µM
[3]
  Ki: 1.4 µM

## CC(C)(O)C(=O)Nc1ccc([N+](=O)[O-])c(C(F)(F)F)c1 [hydroxyflutamide, reference compound]
[2]; Table 4, antagonist mode
  HillSlope: 1.282

## C[C@]12CC[C@@]3(C)C(=C1C[C@@H](O)C2)CC[C@H]1CC(=O)CC[C@@H]13 [Compound 106]
[2]; [4]
  IC50: 1.8 µM

## C[C@]12CCC3=C(CC[C@H]4CC(=O)CC[C@]34C)[C@@]13C[C@H]3[C@@H](O)C2 [Compound 202, (2S,2aR,3aR,5aS,9aS,11aR)-2-hydroxy-9a, 11a-dimethyl-1,2a,3,4,5a,6,8,9,9a,10,11,11a-dodecahydro-2H-cyclopropa[1,5]cyclopenta[1,2-a]phenanthren-7(5H)-one]
[2]; Table 4, antagonist mode
  HillSlope: 1.360
  IC50: 0.0605 µM
[2]; [4]
  IC50: 0.061 µM
[3]
  Ki: 0.837 µM

## C[C@]12CC[C@@]3(C)C(=C1C[C@H](O)C2)CC[C@H]1CC(=O)CC[C@@H]13 [Compound 109]
[2]; [4]
  IC50: 6.8 µM
